Measured values from patent US20240246984A1, “HETEROCYCLIC JAK INHIBITOR” (BEIJING INNOCARE PHARMA TECH CO., LTD., priority 2020, published 2024).

How the values were obtained:
[1] = target: human recombinant TYK2 protein (Homo sapiens, UniProt P29597); assay: TYK2 activity inhibition assay (HTRF kinase detection); type: biochemical; conditions: 11.25 μM ATP substrate solution
Method: The effect of the compounds of the present invention on the activity of TYK2 was assessed by using an in vitro kinase detection assay.
The enzymatic activity of TYK2 was assessed by detecting the substrate phosphorylation level in a kinase reaction with a homogeneous time-resolved fluorescence (HTRF) kinase detection kit (Cisbio, 62TK0PEC). A reaction buffer contained an enzyme buffer (1×), 5 mM MgCl2, 1 mM DTT and 0.01% Brij35 from the kit; a human recombinant TYK2 protein (Carna Biosciences, 08-147) was diluted to a kinase reaction solution of 0.25 ng/μL with the reaction buffer; a substrate reaction solution contained 11.25 μM ATP and a biotin-labeled tyrosine kinase substrate diluted to 0.5 μM with the reaction buffer; a detection buffer contained 0.1 ng/μL Eu^3+ labeled cage antibody (Cisbio, 61T66KLB) and 25 nM streptavidin-labeled XL665 (Cisbio, 610SAXLB) in the reaction buffer; the compound was dissolved to 10 μM in DMSO, followed by a serial 4-fold dilution with DMSO to a minimum concentration of 0.061 nM. Each concentration was further diluted 40-fold with the reaction buffer. To a 384-well assay plate (Corning, 3674) were added 4 μL of the compound solutions having a series of concentrations and 2 μL of kinase reaction solutions. After being mixed evenly, the mixtures were incubated at room temperature for 15 minutes, and then 4 μL of the substrate reaction solutions were added. The reaction mixtures were incubated at room temperature for 40 minutes. Then the reaction mixtures were added with 10 μL of detection solutions, mixed evenly, and allowed to stand at room temperature for 30 minutes. An Envision plate reader (Perkin Elmer) was then used to measure the progress of the reaction at wavelengths of 620 nm and 665 nm. The signal value (absorbance at 665 nm/absorbance at 620 nm) was positively correlated with the degree of substrate phosphorylation, therefore the kinase activity of TYK2 was detected. In this assay, the group without TYK2 kinase protein was the 100% inhibition group, and the group with TYK2 kinase protein but without the test compound was the 0% inhibition group. The compound inhibition curve was plotted using XLfit software and the IC50 of its inhibition was calculated.

[2] = target: human recombinant JAK2 protein (Homo sapiens, UniProt O60674); assay: JAK2 activity inhibition assay (HTRF kinase detection); type: biochemical; conditions: 2.5 μM ATP substrate solution
Method: The effect of the compounds of the present invention on the activity of JAK2 was assessed by using an in vitro kinase detection assay.
The enzymatic activity of JAK2 was assessed by detecting the substrate phosphorylation level in a kinase reaction with a homogeneous time-resolved fluorescence (HTRF) kinase detection kit (Cisbio, 62TK0PEC). A reaction buffer contained an enzyme buffer (1×), 5 mM MgCl2, 1 mM DTT and 0.01% Brij35 from the kit; a human recombinant JAK2 protein (Carna Biosciences, 08-045) was diluted to a kinase reaction solution of 0.15 ng/μL with the reaction buffer; a substrate reaction solution contained 2.5 μM ATP and a biotin-labeled tyrosine kinase substrate diluted to 0.25 μM with the reaction buffer; a detection buffer contained 0.1 ng/μL Eu^3+ labeled cage antibody (Cisbio, 61T66KLB) and 12.5 nM streptavidin-labeled XL665 (Cisbio, 610SAXLB) in the reaction buffer; the compound was dissolved to 10 μM in DMSO, followed by a serial 4-fold dilution with DMSO to a minimum concentration of 0.061 nM. Each concentration was further diluted 40-fold with the reaction buffer. To a 384-well assay plate (Corning, 3674) were added 4 μL of the compound solutions having a series of concentrations and 2 μL of JAK2 kinase reaction solutions. After being mixed evenly, the mixtures were incubated at room temperature for 15 minutes, and then 4 μL of the substrate reaction solutions were added. The reaction mixtures were incubated at room temperature for 30 minutes. Then the reaction mixtures were added with 10 μL of detection solutions, mixed evenly, and allowed to stand at room temperature for 30 minutes. An Envision plate reader (Perkin Elmer) was then used to measure the progress of the reaction at wavelengths of 620 nm and 665 nm. The signal value (absorbance at 665 nm/absorbance at 620 nm) was positively correlated with the degree of substrate phosphorylation, therefore the kinase activity of JAK2 was detected. In this assay, the group without JAK2 kinase protein was the 100% inhibition group, and the group with JAK2 kinase protein but without the test compound was the 0% inhibition group. The compound inhibition curve was plotted using XLfit software and the IC50 of its inhibition was calculated.

[3] = system: IL-12-induced IFN-γ secretion in NK92 cells; assay: Inhibition of IL-12-induced IFN-γ secretion in NK92 cells (ELISA); type: cell-based; conditions: Homo sapiens, IL-12 stimulation, 24 hours, read-out: IC50 (NK92IL12/IFN-γ)
Method: The effect of the compounds of the present invention on IFN-γ secretion in IL-12-induced NK92 cells was evaluated by an enzyme-linked immunosorbent assay (ELISA).
The assay principle was generally described below: IL-12R was mainly expressed in activated T-cells, NK cells (NK92 was an NK cell line), DC cells, and B-cells. When binding to IL-12, it activated the JAK2/TYK2 signal transduction pathway within NK cells and activated T lymphocytes, thereby inducing secretion of IFN-γ.
The compound was dissolved to 2.5 mM in DMSO, followed by a serial 4-fold dilution with DMSO to a minimum concentration of 0.31 μM. Each concentration was further diluted 50-fold with an FBS-free MEMα medium (Thermofisher. 12561-056).
NK92 cells (Nanjing Cobioer, CBP60980) were cultured in a complete MEMα medium containing 12.5% FBS (Ausbian, VS500T), 12.5% horse serum (Thermofisher, 16050-122), 0.02 mM folic acid (Sigma, F8758), 0.2 mM inositol (Sigma, 17850), 0.55 mM β-mercaptoethanol (Thermofish, 21985-023), 200 U/mL IL-2 (R&D Systems, 202-1L), and 100 U/mL penicillin-streptomycin mixed liquor (ThermoFisher, 15140122). When covering 80-90% of the culture container surface, the cells were dispersed and plated on a 96-well plate (ThermoFisher, 167425) with 100,000 cells per well (80 μL of the complete MEMα medium without IL-2). The 96-well plate was then incubated overnight in a 37° C., 5% CO2 incubator.
After overnight incubation, 10 μL of the compound and 10 μL of 50 ng/ml IL-12 (R &D Systems, 219-1L) were added to each well and mixed gently, and the 96-well plate was incubated in the 37° C., 5% CO2 incubator for additional 24 hours. The plate was centrifuged at 800 rpm for 10 minutes at room temperature and 50 μL of the supernatant from each well was transferred to another 96-well plate (Sigma, CLS3695) coated with anti-IFN-γ antibody. The amount of IFN-γ secretion was detected following the instruction from the Human IFN-γ DuoSet ELISA assay kit (R & D Systems, DY285B). In this assay, the group in which IL-12 and the test compound were replaced with the MEMα medium was the non-stimulated control group (100% inhibition), and the group with IL-12 and 0.2% DMSO was the stimulated control group (0% inhibition). The compound inhibition curve was plotted using XLfit software and the IC50 of its inhibition was calculated.

IC50 [1] [nM]	IC50 [2] [nM]	IC50 [3] [nM]	SMILES
4.8	27	1310	Cn1cc(Nc2nc(-c3c(F)cccc3F)n3c2C(=O)NCC3)cn1 [Compound 5, 3-(2,6-difluorophenyl)-1-((1-methyl-1H-pyrazol-4-yl)amino)-6,7-dihydroimidazo[1,5-a]pyrazin-8(5H)-one]
0.4	4.4	122	O=C1NCCn2c(-c3c(F)cccc3F)nc(Nc3ccc(N4CCOCC4)cc3)c21 [Compound 10, 3-(2,6-difluorophenyl)-1-((4-morpholinophenyl)amino)-6,7-dihydroimidazo[1,5-a]pyrazin-8(5H)-one]
0.2	1.4	60	NC(=O)c1ccc(Nc2nc(-c3c(F)cccc3F)n3cc[nH]c(=O)c23)cc1 [Compound 27, 4-((3-(2,6-difluorophenyl)-8-oxo-7,8-dihydroimidazo[1,5-a]pyrazin-1-yl)amino)benzamide]
0.3	0.5	113	O=C(Cc1ccc(Nc2nc(-c3c(F)cccc3F)n3cc[nH]c(=O)c23)cc1)N1CCOCC1 [Compound 14, 3-(2,6-difluorophenyl)-1-((4-(2-morpholino-2-oxoethyl)phenyl)amino)imidazo[1,5-a]pyrazin-8(7H)-one]
0.2	0.6	268	CN1CCN(C(=O)C(C)(C)c2ccc(Nc3nc(-c4c(F)cccc4Cl)n4cc[nH]c(=O)c34)cc2)CC1 [Compound 37, 3-(2-chloro-6-fluorophenyl)-1-((4-(2-methyl-1-(4-methylpiperazin-1-yl)-1-oxopropan-2-yl)phenyl)amino)imidazo[1,5-a]pyrazin-8(7H)-one]
50	29	–	O=C1NCCn2c(-c3c(F)cccc3F)nc(Nc3cccc(C(=O)N4CCOCC4)c3)c21 [Compound 23, 3-(2,6-difluorophenyl)-1-((3-(morpholine-4-carbonyl)phenyl)amino)-6,7-dihydroimidazo[1,5-a]pyrazin-8(5H)-one]
220	–	–	Cn1ccc(Nc2nc(-c3c(F)cccc3F)n3c2C(=O)NCC3)n1 [Compound 8, 3-(2,6-difluorophenyl)-1-((1-methyl-1H-pyrazol-3-yl)amino)-6,7-dihydroimidazo[1,5-a]pyrazin-8(5H)-one]
0.1	0.6	56	CN1CCN(C(=O)c2ccc(Nc3nc(-c4c(F)cccc4Cl)n4cc[nH]c(=O)c34)cc2)CC1 [Compound 31, 3-(2-chloro-6-fluorophenyl)-1-((4-(4-methylpiperazine-1-carbonyl)phenyl)amino)imidazo[1,5-a]pyrazin-8(7H)-one]
5.1	39	–	CN1CCN(C(=O)Cn2cc(Nc3nc(-c4c(F)cccc4F)n4c3C(=O)NCC4)cn2)CC1 [Compound 25, 3-(2,6-difluorophenyl)-1-((1-(2-(4-methylpiperazin-1-yl)-2-oxoethyl)-1H-pyrazol-4-yl)amino)-6,7-dihydroimidazo[1,5-a]pyrazin-8(5H)-one]
–	–	95	O=C1NCCn2c(-c3c(F)cccc3F)nc(Nc3ccc(C(=O)N4CCOCC4)cc3)c21 [Compound 2, 3-(2,6-difluorophenyl)-1-((4-(morpholine-4-carbonyl)phenyl)amino)-6,7-dihydroimidazo[1,5-a]pyrazin-8(5H)-one]
12	12	–	O=C(c1ccc(Nc2nc(C3CCN(C4CC4)CC3)n3cc[nH]c(=O)c23)cc1)N1CCOCC1 [Compound 21, 3-(1-cyclopropylpiperidin-4-yl)-1-((4-(morpholine-4-carbonyl)phenyl)amino)imidazo[1,5-a]pyrazin-8(7H)-one]
3.2	42	–	O=C1NCCn2c(-c3c(F)cccc3F)nc(Nc3cnn(CC(=O)N4CCOCC4)c3)c21 [Compound 24, 3-(2,6-difluorophenyl)-1-((1-(2-morpholino-2-oxoethyl)-1H-pyrazol-4-yl)amino)-6,7-dihydroimidazo[1,5-a]pyrazin-8(5H)-one]
20	62	–	Cn1ccc(Nc2nc(-c3c(F)cccc3F)n3cc[nH]c(=O)c23)n1 [Compound 7, 3-(2,6-difluorophenyl)-1-((1-methyl-1H-pyrazol-3-yl)amino)imidazo[1,5-a]pyrazin-8(7H)-one]
7	13	–	O=c1[nH]ccn2c(-c3c(F)cccc3F)nc(Nc3ccc(N4CCOCC4)cn3)c12 [Compound 9, 3-(2,6-difluorophenyl)-1-((5-morpholinopyridin-2-yl)amino)imidazo[1,5-a]pyrazin-8(7H)-one]
23	14	–	CC(=O)N1CCC(c2nc(Nc3ccc(C(=O)N4CCOCC4)cc3)c3c(=O)[nH]ccn23)CC1 [Compound 19, 3-(1-acetylpiperidin-4-yl)-1-((4-(morpholine-4-carbonyl)phenyl)amino)imidazo[1,5-a]pyrazin-8(7H)-one]
37	53	–	O=C(c1ccc(Nc2nc(C3CCNCC3)n3cc[nH]c(=O)c23)cc1)N1CCOCC1 [Compound 20, 1-((4-(morpholine-4-carbonyl)phenyl)amino)-3-(piperidin-4-yl)imidazo[1,5-a]pyrazin-8(7H)-one]
3.3	3.9	–	O=C(c1cccc(Nc2nc(-c3c(F)cccc3F)n3cc[nH]c(=O)c23)c1)N1CCOCC1 [Compound 22, 3-(2,6-difluorophenyl)-1-((3-(morpholine-4-carbonyl)phenyl)amino)imidazo[1,5-a]pyrazin-8(7H)-one]
